Patent publication US8318949B2, “Organic compounds” (Novartis AG, priority 2008, dated 2012)

Legend:
[1] = target: T1, stearoyl-CoA desaturase (SCD1) (Mus musculus, UniProt P13516); assay: Stearoyl-CoA desaturase inhibition, mouse liver microsomes (release of 3H2O from [9,10-3H]stearoyl-CoA); assay type: biochemical; conditions: 15 min incubation, 25° C., read-out: Microsomal IC50
T1 construct: Male ICR outbread mice, on a high-carbohydrate, low fat diet; from tissue; host or cells: liver microsomes of male ICR mice on a high-carbohydrate, low fat diet
T1 sequence (P13516 1-355): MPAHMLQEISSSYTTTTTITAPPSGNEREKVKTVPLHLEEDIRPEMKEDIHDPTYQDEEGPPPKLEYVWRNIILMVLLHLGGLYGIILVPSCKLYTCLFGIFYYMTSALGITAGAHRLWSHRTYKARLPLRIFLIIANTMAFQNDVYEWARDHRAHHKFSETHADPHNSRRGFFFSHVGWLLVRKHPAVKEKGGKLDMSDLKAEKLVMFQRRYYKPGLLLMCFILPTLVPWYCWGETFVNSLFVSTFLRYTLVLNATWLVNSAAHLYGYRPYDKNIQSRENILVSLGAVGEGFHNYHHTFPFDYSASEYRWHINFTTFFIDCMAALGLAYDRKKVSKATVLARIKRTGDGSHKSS
Description: The identification of compounds of the invention as SCD inhibitors was readily accomplished using the SCD enzyme and microsomal assay procedure described in Shanklin J. and Summerville C., Proc. Natl. Acad. Sci. USA (1991), Vol. 88, pp. 2510-2514.
Measuring Stearoyl-CoA Desaturase Inhibition Activity of a Test Compound Using Mouse Liver Microsomes
The identification of compounds of the invention as SCD inhibitors was readily accomplished using the SCD microsomal assay procedure described in Shanklin J. and Summerville C., Proc. Natl. Acad. Sci. USA (1991), Vol. 88, pp. 2510-2514.
Male ICR outbread mice, on a high-carbohydrate, low fat diet, under light halothane (15% in mineral oil) anesthesia are sacrificed by exsanguination during periods of high enzyme activity. Livers are immediately rinsed with cold 0.9% NaCl solution, weighed and minced with scissors. All procedures are performed at 4° C. unless specified otherwise. Livers are homogenized in a solution (1/3 w/v) containing 0.25 M sucrose, 62 mM potassium phosphate buffer (pH 7.0), 0.15 M KCl, 15 mM N-acetyleysteine, 5 mM MgCl2, and 0.1 mM EDTA using 4 strokes of a Potter-Elvehjem tissue homogenizer. The homogenate is centrifuged at 10,400×g for 20 min to eliminate mitochondria and cellular debris. The supernatant is filtered through a 3-layer cheesecloth and centrifuged at 105,000×g for 60 min. The microsomal pellet is gently resuspended in the same homogenization solution with a small glass/teflon homogenizer and stored at −70° C. The absence of mitochondrial contamination is enzymatically assessed. The protein concentration is measured using bovine serum albumin as the standard.
Desaturase activity is measured as the release of ^3H2O from [9,10-^3H]stearoyl-CoA. Reactions per assay point conditions are as follows: 2 μL 1.5 mM stearoyl-CoA, 0.25 μL 1 mCi/mL ^3H stearoyl CoA, 10 μL 20 mM NADH, 36.75 μL 0.1 M PK buffer (K2HPO4/NaH2PO4, pH 7.2). The test compound or control solution is added in a 1 μL volume. Reactions are started by adding 50 μL of microsomes (1.25 mg/mL). The plates are mixed and after 15 min incubation on a heating block (25° C.), the reactions are stopped by the addition of 10 μL 60% PCA. An aliquot of 100 μL is then transferred to a filter plate pretreated with charcoal and the plate centrifuged at 4000 rpm for 1 minute. The flow through containing the ^3H2O released by the SCD1 desaturation reaction is added to scintillation fluid and the radioactivity measured in a Packard TopCount. The data is analysed to identify the IC50 for test compounds and reference compounds.
The activity was defined in terms of % SCD enzyme activity remaining at the desired concentration of the test compound or as the IC50 concentration. The IC50 (affinity) of the example compounds toward the stearoyl-CoA desaturase is comprised between around […] and 0.0001 μM or between around 5 μM and 0.0001 μM or between around 1 μM and 0.0001 μM.

| IC50 [1] | melting point | SMILES |
| --- | --- | --- |
| 36 nM | 135 to 136 °C | Cc1nc(N2C[C@@H](C)N(Cc3ccc(F)cc3)C2=O)sc1C(=O)NCc1cccnc1 [Example 2.7, (R)-2-(3-(4-Fluorobenzyl)-4-methyl-2-oxoimidazolidin-1-yl)-4-methyl-N-(pyridin-3-ylmethyl)thiazole-5-carboxamide] |
| 186 nM | 209 to 214 °C | Cc1nc(N2CCN(Cc3cccc(C(F)(F)F)c3)C2=O)sc1-c1cc[nH]n1 [Example 17.2, 1-(4-methyl-5-(1H-pyrazol-3-yl)thiazol-2-yl)-3-(3-(trifluoromethyl)benzyl)imidazolidin-2-one] |
| 527 nM | – | Cc1nc(N2CCN(Cc3ccc(S(C)(=O)=O)cc3)C2=O)sc1C(N)=O [Example 20-133, 4-methyl-2-(3-(4-(methylsulfonyl)benzyl)-2-oxoimidazolidin-1-yl)thiazole-5-carboxamide] |
